Structures are written as SMILES.

In this assay the target is T1, GAL4-RORγ (GAL4 DBD fused to the ROR gamma ligand-binding domain) (Homo sapiens, UniProt P51449).
T1 construct: expressed in transfected cells; host or cells: HG5LN (HeLa line with GAL4-responsive luciferase reporter)
T1 sequence (P51449 269-508 limits assumed): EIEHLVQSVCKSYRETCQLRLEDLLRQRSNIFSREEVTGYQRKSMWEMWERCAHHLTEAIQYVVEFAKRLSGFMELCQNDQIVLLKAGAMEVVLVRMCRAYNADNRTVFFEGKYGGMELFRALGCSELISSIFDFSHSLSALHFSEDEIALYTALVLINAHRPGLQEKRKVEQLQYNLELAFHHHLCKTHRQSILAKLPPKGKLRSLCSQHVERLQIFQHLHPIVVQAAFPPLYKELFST
In words: GAL4-RORγ transactivation (luciferase reporter, HG5LN HeLa line). As to conditions: HG5LN HeLa cells, 18 hours incubation, luciferase luminescence, read-out: IC50 hRORg. It is filed as cell-based. The source says: In the tables described above, the median inhibitory concentrations IC50 for the compounds belonging to formula (I) according to the invention have been given according to the following models:
GAL4-RORγ Transactivation
The RORγ transactivation model was developed from the line HG5LN, which is a HeLa line that stably expresses a luciferase reporter gene controlled by a pentamer of the GAL4 recognition domain of yeast and of a β-globin promoter. The HG5LN line was stably transfected by the DNA-binding domain (DBD) of GAL4 fused to the ROR gamma ligand-binding domain (LBD). Molecules that inhibit the ROR gamma constitutive activity reduce the luciferase expression, thus leading to a reduction in the emitted luminescence.
The cells are seeded in 384-well plates (5000 cells in 45 μL/well of culture medium containing 10% fetal calf serum) and incubated for 4 hours at 37° C., 5% CO2. 5 μL of the test molecules (compounds described in the tables described above) are then added to each well and the plates are incubated for 18 hours at a temperature of 37° C. under 5% of CO2. 20 μL of luciferase substrate (Promega) are added to each well and the luminescence emitted is read by a microplate reader.
The luminescence units (“RLU”) are normalized by positive controls (“POS” containing a saturated concentration of N-(2,2,2-trifluoroethyl)-N-[4-[2,2,2-trifluoro-1-hydroxy-1-(trifluoromethyl)ethyl]phenyl])benzenesulfonamide and negative controls (“NEG” containing DMSO): % inhibition=((RLU−NEG)*100)/(POS−NEG). The IC50 values are calculated from a 4-parameter logistic model using the XLFit software (IDBS).
For the compound `CCc1ccc(N([C@H](C)CC)S(=O)(=O)c2ccc3c(cnn3CC3CCOCC3)c2)cc1` [Compound 2, 1-(tetrahydropyran-4-ylmethyl)-1H-indazole-5-sulfonic acid ((R)-sec-butyl)(4-ethylphenyl)amide], the IC50 (in general, the concentration needed to halve the response being measured) was 100 to 1000 nM. The same measure for `CCc1ccc(N(C2CC2)S(=O)(=O)c2ccc3c(cnn3CC3CCOCC3)c2)cc1` [Compound 3, 1-(tetrahydropyran-4-ylmethyl)-1H-indazole-5-sulfonic acid cyclopropyl(4-ethylphenyl)amide]: greater than 1000 nM; for `CCc1ccc(N(CC(C)C)S(=O)(=O)c2ccc3c(Br)nn(C4CCCCO4)c3c2)cc1` (stereo not shown) [Compound 4, 3-bromo-1-(tetrahydropyran-2-yl)-1H-indazole-6-sulfonic acid (4-ethylphenyl)isobutylamide]: greater than 1000 nM. The same measure for `CCc1ccc(N(CC2CCOCC2)S(=O)(=O)c2ccc3c(cnn3CC3CCOCC3)c2)cc1` [Compound 5, 1-(tetrahydropyran-4-ylmethyl)-1H-indazole-5-sulfonic acid (4-ethylphenyl)(tetrahydropyran-4-ylmethyl)amide]: greater than 1000 nM; for `CCc1ccc(N(CC(C)C)S(=O)(=O)c2ccc3c(cnn3Cc3c(C)noc3C)c2)cc1` [Compound 6, 1-((3,5-dimethylisoxazol-4-yl)methyl)-N-(4-ethylphenyl)-N-isobutyl-1H-indazole-5-sulfonamide]: 100 to 1000 nM. The same measure for `CCCN(c1ccc(CC)cc1)S(=O)(=O)c1ccc2c(cnn2CC2CCOCC2)c1` [Compound 8, 1-(tetrahydropyran-4-ylmethyl)-1H-indazole-5-sulfonic acid (4-ethylphenyl)propyl]: greater than 1000 nM; for `CCCCN(c1ccc(CC)cc1)S(=O)(=O)c1ccc2c(cnn2CC2CCOCC2)c1` [Compound 9, 1-(tetrahydropyran-4-ylmethyl)-1H-indazole-5-sulfonic acid butyl(4-ethylphenyl)amide]: greater than 1000 nM; for `CC(C)CN(c1cc(Cl)ccc1F)S(=O)(=O)c1ccc2c(cnn2CC2CCOCC2)c1` [Compound 10, 1-(tetrahydropyran-4-ylmethyl)-1H-indazole-5-sulfonic acid (5-chloro-2-fluorophenyl)isobutylamide]: greater than 1000 nM. As to `Cc1ccc(C)c(N(CC(C)C)S(=O)(=O)c2ccc3c(cnn3CC3CCOCC3)c2)c1` [Compound 11, 1-(tetrahydropyran-4-ylmethyl)-1H-indazole-5-sulfonic acid (2,5-dimethylphenyl)isobutylamide], the IC50 lay within 100 to 1000 nM. Regarding `CCCCc1ccc(N(CC(C)C)S(=O)(=O)c2ccc3c(cnn3CC3CCOCC3)c2)c(C)c1` [Compound 13, 1-(tetrahydropyran-4-ylmethyl)-1H-indazole-5-sulfonic acid (4-butyl-2-methylphenyl)isobutylamide], the IC50 was 100 to 1000 nM. With `CCc1ccc(N(CC(C)C)S(=O)(=O)c2ccc3c(c2)c(CO)nn3CC2CCOCC2)cc1` [Compound 14, 3-hydroxymethyl-1-(tetrahydropyran-4-ylmethyl)-1H-indazole-5-sulfonic acid (4-ethylphenyl)isobutylamide] the figure was greater than 1000 nM; with `CCc1ccc(N(CC2COC2)S(=O)(=O)c2ccc3c(cnn3CC3CCOCC3)c2)cc1` [Compound 16, 1-(tetrahydropyran-4-ylmethyl)-1H-indazole-5-sulfonic acid (4-ethylphenyl)oxetan-3-ylmethylamide], greater than 1000 nM; with `CCc1ccc(N(CC(C)C)S(=O)(=O)c2ccc3c(cnn3C3CCN(C(C)=O)C3)c2)cc1` (stereo not shown) [Compound 17, 1-(1-acetylpyrrolidin-3-yl)-1H-indazole-5-sulfonic acid (4-ethylphenyl)isobutylamide], 100 to 1000 nM. With `CCc1ccc(N(CC(C)C)S(=O)(=O)c2ccc3c(c2)c(OCC2CCOCC2)nn3CC2CCOCC2)cc1` [Compound 18, 3-(tetrahydropyran-4-ylmethoxy)-1-(tetrahydropyran-4-ylmethyl)-1H-indazole-5-sulfonic acid (4-ethylphenyl)isobutylamide] the figure was greater than 1000 nM; with `CCc1ccc(N(CC(C)C)S(=O)(=O)c2ccc3c(cnn3CC3CN(C(C)=O)C3)c2)cc1` [Compound 19], greater than 1000 nM. With `CCc1ccc(N(CC(C)C)S(=O)(=O)c2ccc3c(cnn3CC3CCN(C(C)=O)C3)c2)cc1` (stereo not shown) [Compound 20, 1-((1-acetylpyrrolidin-3-yl)methyl)-N-(4-ethylphenyl)-N-isobutyl-1H-indazole-5-sulfonamide] the figure was greater than 1000 nM; with `CCc1ccc(N(CC(C)C)S(=O)(=O)c2ccc3c(cnn3CC3CCOC3)c2)cc1` (stereo not shown) [Compound 21, N-(4-ethylphenyl)-N-isobutyl-1-((tetrahydrofuran-3-yl)methyl)-1H-indazole-5-sulfonamide], greater than 1000 nM; with `CCc1ccc(N(CC(C)C)S(=O)(=O)c2ccc3c(cnn3CC3CCCOC3)c2)cc1` (stereo not shown) [Compound 22, N-(4-ethylphenyl)-N-isobutyl-1-((tetrahydro-2H-pyran-3-yl)methyl)-1H-indazole-5-sulfonamide], greater than 1000 nM. Regarding `CCc1ccc(N(CC(C)C)S(=O)(=O)c2ccc3c(cnn3Cc3ccccc3)c2)cc1` [Compound 23, 1-benzyl-N-(4-ethylphenyl)-N-isobutyl-1H-indazole-5-sulfonamide], the IC50 was greater than 1000 nM. The same measure for `CCc1ccc(N(CC2CCC2)S(=O)(=O)c2ccc3c(cnn3CC3CCOCC3)c2)cc1` [Compound 24, N-(cyclobutylmethyl)-N-(4-ethylphenyl)-1-((tetrahydro-2H-pyran-4-yl)methyl)-1H-indazole-5-sulfonamide]: 100 to 1000 nM. The same measure for `COc1cccc(N(CC(C)C)S(=O)(=O)c2ccc3c(cnn3CC3CCOCC3)c2)c1` [Compound 25, 1-(tetrahydropyran-4-ylmethyl)-1H-indazole-5-sulfonic acid (3-methoxyphenyl)isobutylamide]: greater than 1000 nM.

In the case of `Cc1cccc(N(CC(C)C)S(=O)(=O)c2ccc3c(cnn3CC3CCOCC3)c2)c1` [Compound 26, 1-(tetrahydropyran-4-ylmethyl)-1H-indazole-5-sulfonic acid (3-methylphenyl)isobutylamide], the IC50 was greater than 1000 nM.

`Cc1ccc(N(CC(C)C)S(=O)(=O)c2ccc3c(cnn3CC3CCOCC3)c2)c(C)c1` [Compound 27, 1-(tetrahydropyran-4-ylmethyl)-1H-indazole-5-sulfonic acid (2,4-dimethylphenyl)isobutylamide]: the IC50 was in the range of 100 to 1000 nM.

Regarding `Cc1cc(C)cc(N(CC(C)C)S(=O)(=O)c2ccc3c(cnn3CC3CCOCC3)c2)c1` [Compound 28, 1-(tetrahydropyran-4-ylmethyl)-1H-indazole-5-sulfonic acid (3,5-dimethylphenyl)isobutylamide], the IC50 is greater than 1000 nM. With `CCc1ccc(N(C(C)C)S(=O)(=O)c2ccc3c(cnn3CC3CCOCC3)c2)cc1` [Compound 29, N-(4-ethylphenyl)-N-isopropyl-1-((tetrahydro-2H-pyran-4-yl)methyl)-1H-indazole-5-sulfonamide] the figure was greater than 1000 nM.

For the compound `CCc1ccc(N(C(C)CC)S(=O)(=O)c2ccc3c(cnn3CC3CCOCC3)c2)cc1` (stereo not shown) [Compound 30, 1-(tetrahydropyran-4-ylmethyl)-1H-indazole-5-sulfonic acid sec-butyl(4-ethylphenyl)amide], the IC50 was 100 to 1000 nM. The same measure for `CCc1ccc(N(CC2CC2)S(=O)(=O)c2ccc3c(cnn3CC3CCOCC3)c2)cc1` [Compound 31, N-(cyclopropylmethyl)-N-(4-ethylphenyl)-1-((tetrahydro-2H-pyran-4-yl)methyl)-1H-indazole-5-sulfonamide]: greater than 1000 nM; for `CCc1ccc(N(C2CCCC2)S(=O)(=O)c2ccc3c(cnn3CC3CCOCC3)c2)cc1` [Compound 32, 1-(tetrahydropyran-4-ylmethyl)-1H-indazole-5-sulfonic acid cyclopentyl(4-ethylphenyl)amide]: less than 100 nM; for `CCc1ccc(N(CC2CCOC2)S(=O)(=O)c2ccc3c(cnn3CC3CCOCC3)c2)cc1` (stereo not shown) [Compound 33, 1-(tetrahydropyran-4-ylmethyl)-1H-indazole-5-sulfonic acid (4-ethylphenyl)(tetrahydrofuran-3-ylmethyl)amide]: greater than 1000 nM.

For `CCc1ccc(N(CC(C)C)S(=O)(=O)c2ccc3[nH]nc(N)c3c2)cc1` [Compound 34, 3-amino-1H-indazole-5-sulfonic acid (4-ethylphenyl)isobutylamide], the IC50 was greater than 1000 nM.

With `CCc1ccc(N(CCC(C)C)S(=O)(=O)c2ccc3c(cnn3CC3CCOCC3)c2)cc1` [Compound 35, N-(4-ethylphenyl)-N-isopentyl-1-((tetrahydro-2H-pyran-4-yl)methyl)-1H-indazole-5-sulfonamide], the IC50 was greater than 1000 nM.

The record behind these values is patent publication US10752617B2 (GALDERMA RESEARCH & DEVELOPMENT, priority 2014, dated 2020).
